Results published in publication PMC5433929, “High-resolution crystal structure of the human CB1 cannabinoid receptor” (Nature, 2016).

Key:
[1] = biological target: CB1; set-up: method as in PMID 17327489; details: cited from earlier work
[2] = biological target: CB2; set-up: method as in PMID 17327489; details: cited from earlier work
[3] = biological target: CB1-PGS (Homo sapiens, UniProt P21554, DEL304-332/H302F/INS301[…]); test: Differential scanning fluorimetry on detergent-solubilized receptor; details: 10 μM ligand
CB1-PGS, sequence (P21554 with tags, fused parts or gaps INS301[withheld]/H302F/DEL304-332): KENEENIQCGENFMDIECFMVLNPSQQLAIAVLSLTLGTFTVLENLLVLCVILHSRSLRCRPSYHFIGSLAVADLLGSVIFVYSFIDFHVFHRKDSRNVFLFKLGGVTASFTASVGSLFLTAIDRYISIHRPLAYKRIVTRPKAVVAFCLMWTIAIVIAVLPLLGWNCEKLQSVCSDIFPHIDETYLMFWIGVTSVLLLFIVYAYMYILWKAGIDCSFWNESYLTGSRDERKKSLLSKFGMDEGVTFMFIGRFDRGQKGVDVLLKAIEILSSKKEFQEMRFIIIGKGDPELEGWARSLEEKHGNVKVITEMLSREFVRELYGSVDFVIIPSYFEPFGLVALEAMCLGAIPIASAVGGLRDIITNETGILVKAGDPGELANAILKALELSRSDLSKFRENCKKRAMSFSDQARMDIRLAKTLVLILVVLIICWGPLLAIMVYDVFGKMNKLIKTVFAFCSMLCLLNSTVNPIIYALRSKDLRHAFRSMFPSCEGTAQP

effect on receptor thermostability (DSF) [3]: enhanced thermostability
SMILES: C[C@H](NC(=O)C(C)(C)Oc1ccc(C(F)(F)F)cn1)[C@@H](Cc1ccc(Cl)cc1)c1cccc(C#N)c1 [taranabant, N-[(1S,2S)-3-(4-chlorophenyl)-2-(3-cyanophenyl)-1-methylpropyl]-2-methyl-2-{[5-(trifluoromethyl)pyridin-2-yl]oxy}propanamide]
Ki [1]: 0.13 nM
Ki [2]: 170 nM
